Measurements: ChEMBL document CHEMBL3881527, “Multi-functional small molecules as anti-proliferative agents” (2008)

Assays:
[1] = target: Receptor tyrosine-protein kinase erbB-2 (Homo sapiens, UniProt P04626); assay: Inhibition of N-terminal GST-tagged human HER2 (Lys676 to Val1255 residues) expressed in baculovirus expression system using biotinylated FLT3 at Tyr589 as substrate preincubated for 5 mins followed by substrate addition measured after 30 mins by DELFIA method
[2] = target: Vascular endothelial growth factor receptor 2 (Homo sapiens, UniProt P35968); assay: Inhibition of N-terminal GST-His6-thrombin cleavage site-fused human VEGFR2 (Asp805 to Val1356 residues) expressed in baculovirus expression system using biotinylated gastrin precursor at Tyr87 as substrate preincubated for 5 mins followed by substrate addition measured after 30 mins by DELFIA method
[3] = target: Epidermal growth factor receptor (Homo sapiens, UniProt P00533); assay: Inhibition of N-terminal GST-fused human EGFR (His672 to Ala1210 residues) expressed in baculovirus expression system using biotinylated PTP1B at Tyr66 as substrate preincubated for 5 mins followed by substrate addition measured after 30 mins by DELFIA
[4] = target: Platelet-derived growth factor receptor beta (Homo sapiens, UniProt P09619); assay: Inhibition of N-terminal GST-His6-thrombin cleavage site-fused human PDGFRbeta (Arg561 to Leu1106 residues) assessed as decrease in biotinylated FLT3 phosphorylation at Tyr589 preincubated for 5 mins followed by substrate addition measured after 30 mins by DELFIA method
[5] = target: Proto-oncogene tyrosine-protein kinase Src (Homo sapiens, UniProt P12931); assay: (§1) Inhibition of human N-terminal GST-tagged full length human Src (Met1 to Leu536 residues) expressed in baculovirus expression system assessed as decrease in biotin signal transduction protein phosphorylation at Tyr160 preincubated for 5 mins followed by substrate addition measured after 30 mins by DELFIA method
[6] = target: Tyrosine-protein kinase ABL1 (Homo sapiens, UniProt P00519); assay: as §1, with “GST-tagged” for “GST-tagged full length”, “Abl1 (Pro118” for “Src (Met1”, “Ser553” for “Leu536”

Sequence of Vascular endothelial growth factor receptor 2 (P35968 whole entry, the tested form may be a part): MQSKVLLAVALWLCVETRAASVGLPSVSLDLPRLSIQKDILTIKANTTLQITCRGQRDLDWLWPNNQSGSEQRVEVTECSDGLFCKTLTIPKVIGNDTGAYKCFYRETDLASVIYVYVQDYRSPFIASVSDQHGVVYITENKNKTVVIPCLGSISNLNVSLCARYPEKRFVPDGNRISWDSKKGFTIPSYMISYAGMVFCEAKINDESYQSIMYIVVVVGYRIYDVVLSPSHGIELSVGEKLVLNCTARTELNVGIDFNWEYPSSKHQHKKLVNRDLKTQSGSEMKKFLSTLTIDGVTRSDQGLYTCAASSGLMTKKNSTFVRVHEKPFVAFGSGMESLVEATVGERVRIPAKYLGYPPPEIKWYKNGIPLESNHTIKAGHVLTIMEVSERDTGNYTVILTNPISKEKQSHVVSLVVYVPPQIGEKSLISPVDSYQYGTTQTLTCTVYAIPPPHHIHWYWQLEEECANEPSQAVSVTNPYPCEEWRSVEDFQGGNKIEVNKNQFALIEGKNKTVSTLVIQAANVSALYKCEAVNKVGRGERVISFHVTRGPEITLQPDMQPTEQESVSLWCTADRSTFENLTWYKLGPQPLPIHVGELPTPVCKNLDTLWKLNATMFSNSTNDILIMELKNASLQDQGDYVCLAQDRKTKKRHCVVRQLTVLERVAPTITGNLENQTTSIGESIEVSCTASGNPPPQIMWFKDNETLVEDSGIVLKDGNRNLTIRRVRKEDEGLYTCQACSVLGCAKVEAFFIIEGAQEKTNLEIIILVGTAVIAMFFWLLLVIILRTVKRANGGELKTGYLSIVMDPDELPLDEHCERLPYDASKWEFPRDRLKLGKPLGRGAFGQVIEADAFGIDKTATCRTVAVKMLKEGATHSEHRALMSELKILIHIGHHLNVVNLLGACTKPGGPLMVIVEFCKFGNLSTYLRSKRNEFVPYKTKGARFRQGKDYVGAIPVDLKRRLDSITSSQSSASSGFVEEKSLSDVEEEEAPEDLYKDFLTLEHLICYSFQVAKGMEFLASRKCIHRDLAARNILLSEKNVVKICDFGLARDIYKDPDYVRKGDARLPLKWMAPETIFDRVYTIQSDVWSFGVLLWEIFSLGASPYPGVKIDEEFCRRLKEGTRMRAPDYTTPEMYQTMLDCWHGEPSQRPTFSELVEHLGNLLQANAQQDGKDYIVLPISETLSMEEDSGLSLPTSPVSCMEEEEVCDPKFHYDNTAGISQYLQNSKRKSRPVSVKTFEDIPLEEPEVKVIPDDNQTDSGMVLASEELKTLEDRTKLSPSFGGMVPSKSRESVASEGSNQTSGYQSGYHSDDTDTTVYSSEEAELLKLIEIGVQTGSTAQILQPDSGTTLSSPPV
Sequence of Epidermal growth factor receptor (P00533 whole entry, the tested form may be a part): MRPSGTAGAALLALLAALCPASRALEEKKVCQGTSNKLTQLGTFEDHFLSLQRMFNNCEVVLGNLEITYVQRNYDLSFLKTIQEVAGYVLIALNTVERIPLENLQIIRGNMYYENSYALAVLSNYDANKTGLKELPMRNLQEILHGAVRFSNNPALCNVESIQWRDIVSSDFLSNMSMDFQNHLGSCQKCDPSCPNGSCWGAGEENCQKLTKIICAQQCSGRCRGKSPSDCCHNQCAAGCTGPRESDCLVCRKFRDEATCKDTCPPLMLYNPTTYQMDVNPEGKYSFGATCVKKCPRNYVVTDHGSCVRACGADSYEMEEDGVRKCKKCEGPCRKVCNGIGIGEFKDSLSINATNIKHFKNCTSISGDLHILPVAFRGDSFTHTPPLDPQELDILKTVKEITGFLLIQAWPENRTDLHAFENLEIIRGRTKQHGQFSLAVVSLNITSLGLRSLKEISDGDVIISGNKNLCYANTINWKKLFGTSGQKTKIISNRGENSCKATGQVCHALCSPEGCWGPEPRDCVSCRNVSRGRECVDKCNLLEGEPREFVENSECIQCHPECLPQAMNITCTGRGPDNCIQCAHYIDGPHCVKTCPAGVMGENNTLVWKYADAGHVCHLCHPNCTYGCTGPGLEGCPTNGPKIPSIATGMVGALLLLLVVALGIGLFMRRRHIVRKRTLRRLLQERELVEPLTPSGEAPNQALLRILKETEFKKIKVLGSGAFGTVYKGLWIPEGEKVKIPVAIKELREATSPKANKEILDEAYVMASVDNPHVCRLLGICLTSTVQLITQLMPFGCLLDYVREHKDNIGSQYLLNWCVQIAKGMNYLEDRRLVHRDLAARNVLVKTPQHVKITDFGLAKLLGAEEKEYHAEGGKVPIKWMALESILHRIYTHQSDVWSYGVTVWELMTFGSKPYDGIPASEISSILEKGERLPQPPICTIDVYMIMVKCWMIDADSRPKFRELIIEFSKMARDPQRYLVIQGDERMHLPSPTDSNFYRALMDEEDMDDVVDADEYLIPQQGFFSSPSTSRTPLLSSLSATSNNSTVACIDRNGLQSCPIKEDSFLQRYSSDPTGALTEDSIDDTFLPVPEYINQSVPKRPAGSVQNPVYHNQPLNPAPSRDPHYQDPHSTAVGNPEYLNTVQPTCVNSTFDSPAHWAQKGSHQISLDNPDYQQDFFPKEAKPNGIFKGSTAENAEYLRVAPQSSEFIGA
Sequence of Platelet-derived growth factor receptor beta (P09619 whole entry, the tested form may be a part): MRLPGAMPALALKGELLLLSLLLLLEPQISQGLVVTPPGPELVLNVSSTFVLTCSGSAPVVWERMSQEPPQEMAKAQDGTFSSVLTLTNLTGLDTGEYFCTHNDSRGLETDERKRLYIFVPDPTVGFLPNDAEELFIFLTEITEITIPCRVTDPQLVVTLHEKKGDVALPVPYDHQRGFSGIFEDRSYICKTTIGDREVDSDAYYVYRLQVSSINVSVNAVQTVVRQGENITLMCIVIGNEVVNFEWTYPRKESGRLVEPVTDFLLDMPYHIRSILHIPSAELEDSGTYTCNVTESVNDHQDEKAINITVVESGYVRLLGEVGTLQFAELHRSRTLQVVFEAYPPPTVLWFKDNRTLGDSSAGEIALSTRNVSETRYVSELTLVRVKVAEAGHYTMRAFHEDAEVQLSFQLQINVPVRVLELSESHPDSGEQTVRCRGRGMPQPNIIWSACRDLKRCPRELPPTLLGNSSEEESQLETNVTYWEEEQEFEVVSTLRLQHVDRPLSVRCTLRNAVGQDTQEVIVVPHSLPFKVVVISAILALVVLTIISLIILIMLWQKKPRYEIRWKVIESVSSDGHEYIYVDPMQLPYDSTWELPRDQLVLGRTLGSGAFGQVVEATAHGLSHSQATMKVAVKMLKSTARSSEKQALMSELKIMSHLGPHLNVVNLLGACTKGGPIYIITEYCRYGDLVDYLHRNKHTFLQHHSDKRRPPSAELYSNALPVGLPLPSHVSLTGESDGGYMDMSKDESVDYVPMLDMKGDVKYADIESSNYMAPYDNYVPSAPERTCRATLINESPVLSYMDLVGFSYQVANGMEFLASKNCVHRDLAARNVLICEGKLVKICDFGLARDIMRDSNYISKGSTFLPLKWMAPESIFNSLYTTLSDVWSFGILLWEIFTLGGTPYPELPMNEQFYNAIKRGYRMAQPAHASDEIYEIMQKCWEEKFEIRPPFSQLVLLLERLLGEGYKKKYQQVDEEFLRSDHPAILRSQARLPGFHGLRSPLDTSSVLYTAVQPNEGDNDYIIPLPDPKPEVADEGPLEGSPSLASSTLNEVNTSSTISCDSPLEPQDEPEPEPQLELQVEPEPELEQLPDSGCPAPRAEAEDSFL
Sequence of Receptor tyrosine-protein kinase erbB-2 (P04626 whole entry, the tested form may be a part): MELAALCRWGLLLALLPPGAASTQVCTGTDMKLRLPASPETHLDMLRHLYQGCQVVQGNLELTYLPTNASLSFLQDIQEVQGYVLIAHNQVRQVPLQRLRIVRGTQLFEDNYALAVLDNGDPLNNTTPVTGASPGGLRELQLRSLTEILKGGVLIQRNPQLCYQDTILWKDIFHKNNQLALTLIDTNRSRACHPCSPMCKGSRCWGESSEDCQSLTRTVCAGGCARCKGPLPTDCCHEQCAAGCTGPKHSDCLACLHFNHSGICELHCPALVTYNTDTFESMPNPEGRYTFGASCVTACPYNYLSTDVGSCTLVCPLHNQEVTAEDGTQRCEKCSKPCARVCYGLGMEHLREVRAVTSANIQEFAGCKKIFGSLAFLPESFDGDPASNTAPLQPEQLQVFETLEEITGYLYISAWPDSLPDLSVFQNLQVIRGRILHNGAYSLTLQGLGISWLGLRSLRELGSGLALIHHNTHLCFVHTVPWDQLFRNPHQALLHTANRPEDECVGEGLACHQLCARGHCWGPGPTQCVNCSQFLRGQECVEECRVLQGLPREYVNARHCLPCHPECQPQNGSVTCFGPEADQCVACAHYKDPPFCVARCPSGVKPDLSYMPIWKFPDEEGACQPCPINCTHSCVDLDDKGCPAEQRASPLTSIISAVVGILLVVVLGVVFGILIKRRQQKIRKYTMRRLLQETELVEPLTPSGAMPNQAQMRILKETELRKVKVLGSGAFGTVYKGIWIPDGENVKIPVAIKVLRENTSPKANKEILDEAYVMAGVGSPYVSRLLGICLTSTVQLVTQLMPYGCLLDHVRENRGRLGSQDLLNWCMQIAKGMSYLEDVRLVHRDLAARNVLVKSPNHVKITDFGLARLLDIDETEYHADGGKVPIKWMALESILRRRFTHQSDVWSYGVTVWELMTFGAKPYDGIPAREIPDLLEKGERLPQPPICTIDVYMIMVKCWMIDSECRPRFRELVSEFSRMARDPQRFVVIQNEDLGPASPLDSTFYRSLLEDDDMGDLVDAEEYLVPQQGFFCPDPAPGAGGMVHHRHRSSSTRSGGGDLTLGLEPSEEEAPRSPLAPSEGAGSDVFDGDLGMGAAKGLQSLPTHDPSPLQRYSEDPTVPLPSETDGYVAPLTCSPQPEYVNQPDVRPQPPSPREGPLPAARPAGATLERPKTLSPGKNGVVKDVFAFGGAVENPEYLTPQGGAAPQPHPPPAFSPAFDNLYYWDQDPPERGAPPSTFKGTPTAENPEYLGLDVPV

Row | SMILES | IC50 [1] [nM] | IC50 [2] [nM] | IC50 [3] [nM] | also measured
1 | C#Cc1cccc(Nc2ncnc3cc(OCCCCCCC(=O)NO)c(OCCOC)cc23)c1 | 100 to 1000 | – | – | –
2 | Cc1[nH]c(/C=C2\C(=O)Nc3ccc(F)cc32)c(C)c1C(=O)NCCCCCC(=O)NO | – | ≤ 100 | – | IC50 [4]: ≤ 100 nM
3 | C[C@@H](Nc1ncnc2[nH]c(-c3ccc(NC(=O)CCCCC(=O)NO)cc3)cc12)c1ccccc1 | 100 to 1000 | 100 to 1000 | ≤ 100 | –
4 | C#Cc1cc(Nc2ncnc3cc(OC)c(OCCCCCCC(=O)NO)cc23)ccc1O | ≤ 100 | – | – | –
5 | C[C@@H](Nc1ncnc2[nH]c(-c3ccc(OCCNCCCCCCCC(=O)NO)cc3)cc12)c1ccccc1 | ≤ 100 | – | – | –
6 | C[C@@H](Nc1ncnc2[nH]c(-c3ccc(C(=O)NCCNCCC(=O)NO)cc3)cc12)c1ccccc1 | 100 to 1000 | 100 to 1000 | ≤ 100 | –
7 | O=C(CCCCCN1CCN(Cc2ccc(-c3cc4c(NCc5ccccc5)ncnc4[nH]3)cc2)CC1)NO | 100 to 1000 | 100 to 1000 | 100 to 1000 | –
8 | Cc1nc(N)cc(N(CC(=O)NO)c2ncc(C(=O)Nc3c(C)cccc3Cl)s2)n1 | – | – | – | IC50 [5]: 100 to 1000 nM; IC50 [6]: 100 to 1000 nM
9 | COc1cc2ncnc(Nc3ccc(F)c(Cl)c3)c2cc1SCCCCCCC(=O)NO | ≤ 100 | – | – | –
10 | Cc1nc(Nc2ncc(C(=O)Nc3c(C)cccc3Cl)s2)cc(N2CCN(CCCC(=O)NO)CC2)n1 | – | – | – | IC50 [5]: ≤ 100 nM; IC50 [6]: ≤ 100 nM
11 | Cc1[nH]c(/C=C2\C(=O)Nc3ccc(F)cc32)c(C)c1C(=O)NCCCC(=O)NO | – | ≤ 100 | – | IC50 [4]: ≤ 100 nM
12 | C[C@@H](Nc1ncnc2[nH]c(-c3ccc(CN4CCN(CCCCC(=O)NO)CC4)cc3)cc12)c1ccccc1 | 100 to 1000 | 100 to 1000 | ≤ 100 | –
13 | C[C@@H](Nc1ncnc2[nH]c(-c3ccc(CN4CCN(CCCCCCC(=O)NO)CC4)cc3)cc12)c1ccccc1 | ≤ 100 | 100 to 1000 | ≤ 100 | –
14 | C[C@@H](Nc1ncnc2[nH]c(-c3ccc(NC(=O)CCC(=O)NO)cc3)cc12)c1ccccc1 | 100 to 1000 | 100 to 1000 | ≤ 100 | –
15 | C#Cc1cccc(Nc2ncnc3cc(OCCCCCCC(=O)NO)c(OC)cc23)c1 | 100 to 1000 | – | – | –
16 | Cc1[nH]c(/C=C2\C(=O)Nc3ccc(F)cc32)c(C)c1C(=O)NCCCCCCC(=O)NO | – | ≤ 100 | – | IC50 [4]: 100 to 1000 nM
17 | Cc1[nH]c(/C=C2\C(=O)Nc3ccc(F)cc32)c(C)c1C(=O)NCCCCCC(=O)N(C)O | – | ≤ 100 | – | –
18 | C[C@@H](Nc1ncnc2[nH]c(-c3ccc(CN4CCN(CCCCCC(=O)NO)CC4)cc3)cc12)c1ccccc1 | 100 to 1000 | 100 to 1000 | – | –
19 | C[C@@H](Nc1ncnc2[nH]c(-c3ccc(OCCCCCCC(=O)NO)cc3)cc12)c1ccccc1 | 100 to 1000 | ≤ 100 | ≤ 100 | –
20 | C[C@@H](Nc1ncnc2[nH]c(-c3ccc(CNCc4ccc(/C=C/C(=O)NO)cc4)cc3)cc12)c1ccccc1 | ≥ 10000 | ≥ 10000 | ≥ 10000 | –
21 | C[C@@H](Nc1ncnc2[nH]c(-c3ccc(NC(=O)CCCC(=O)NO)cc3)cc12)c1ccccc1 | 100 to 1000 | 100 to 1000 | ≤ 100 | –

The next lines start with results.

Row | IC50 [1] [nM] | IC50 [2] [nM] | IC50 [3] [nM] | SMILES | also measured
22 | ≤ 100 | ≤ 100 | ≤ 100 | C[C@@H](Nc1ncnc2[nH]c(-c3ccc(OCCNCCCCCCC(=O)NO)cc3)cc12)c1ccccc1 | –
23 | – | 100 to 1000 | – | O=C(CCCCCCCNCc1cc(Oc2ccc(NC(=O)Nc3ccc(Cl)c(C(F)(F)F)c3)cc2)ccn1)NO | –
24 | 100 to 1000 | – | – | COc1cc2c(Nc3ccc(F)c(Cl)c3)ncnc2cc1OCCCCCCC(=O)NO | –
25 | ≤ 100 | – | – | O=C(CCCCCNCc1ccc(-c2ccc3ncnc(Nc4ccc(OCc5cccc(F)c5)c(Cl)c4)c3c2)o1)NO | –
26 | 100 to 1000 | – | – | COCCOc1cc2c(Nc3ccc(F)c(Cl)c3)ncnc2cc1OCCCCCCC(=O)NO | –
27 | ≤ 100 | 100 to 1000 | 3.1 | COc1cc2ncnc(Nc3ccc(F)c(Cl)c3)c2cc1OCCCCCCC(=O)NO | –
28 | – | 1000 to 10000 | – | O=C(Nc1ccc(Oc2ccnc(C(=O)NO)c2)cc1)Nc1ccc(Cl)c(C(F)(F)F)c1 | –
29 | ≤ 100 | – | – | COc1cc2ncnc(Nc3ccc(OCc4cccc(F)c4)c(Cl)c3)c2cc1OCCCCCCC(=O)NO | –
30 | ≤ 100 | ≤ 100 | ≤ 100 | C[C@@H](Nc1ncnc2[nH]c(-c3ccc(NCCCCCC(=O)NO)cc3)cc12)c1ccccc1 | –
31 | – | ≤ 100 | – | Cc1[nH]c(/C=C2\C(=O)Nc3ccc(F)cc32)c(C)c1C(=O)NCCOc1ccc(/C=C/C(=O)NO)cc1 | –
32 | ≤ 100 | 100 to 1000 | ≤ 100 | C[C@@H](Nc1ncnc2[nH]c(-c3ccc(NCCCCCCC(=O)NO)cc3)cc12)c1ccccc1 | –
